Reference: publication PMC3700413 (Journal of medicinal chemistry, 2008)
“Also recorded” adds a separate entry of the source. Like-named read-outs stand apart in the source and are kept apart here.

How the values were obtained:
CB2 cannabinoid receptor [1] = target: T1, CB2 cannabinoid receptor (Mus musculus, UniProt P47936); conditions: earlier work on adamantyl substituents at C3 of Δ8-THC; cited from earlier work
CB2 cannabinoid receptor [2] = target: T1, CB2 cannabinoid receptor; experiment: Competitive [3H]CP55,940 binding assay, mouse spleen membranes; conditions: rCB1 versus mCB2 Ki values

T1 sequence (P47936 whole entry): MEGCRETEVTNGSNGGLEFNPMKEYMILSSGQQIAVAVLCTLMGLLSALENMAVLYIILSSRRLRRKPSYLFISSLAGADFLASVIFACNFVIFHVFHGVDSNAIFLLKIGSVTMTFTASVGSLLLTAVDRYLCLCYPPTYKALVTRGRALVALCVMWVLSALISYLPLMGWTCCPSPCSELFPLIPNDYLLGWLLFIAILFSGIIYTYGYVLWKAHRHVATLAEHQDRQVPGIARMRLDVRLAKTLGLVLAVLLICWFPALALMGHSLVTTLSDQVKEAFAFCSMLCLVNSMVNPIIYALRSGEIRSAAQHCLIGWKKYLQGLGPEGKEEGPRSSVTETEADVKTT

Row | Compound | CB1/CB2 receptor subtype selectivity (in words) (CB2 cannabinoid receptor [1]) | CB1/CB2 receptor subtype selectivity (in words) (CB2 cannabinoid receptor [2])
1 | CC1=CC[C@@H]2[C@@H](C1)c1c(O)cc(C34CC5CC(CC(C5)C3)C4)cc1OC2(C)C [Compound 11, 3-(adamant-1′-yl)-Δ^8-THC] | substantial CB1 selectivity | –
2 | CC1=CC[C@@H]2[C@@H](C1)c1c(ccc(C[C@H]3C[C@@H]4CC[C@]3(C)C4(C)C)c1O)OC2(C)C [Compound 8c, (6aR-trans)-3-(endo-1′,7′,7′-Trimethylbicyclo[2.2.1]hept-2′-ylmethyl)-6a,7,10,10a-tetrahydro-6,6,9-trimethyl-6H-dibenzo[b,d]pyran-1-ol] | – | nonselective; also recorded: complete loss of subtype selectivities
3 | CC1=CCC2C(C1)c1c(O)cc(C3C4CC5CC(C4)CC3C5)cc1OC2(C)C (centres unmarked) [adamant-2′-yl analog] | CB2 selective | –
4 | CC1=CC[C@@H]2[C@@H](C1)c1c(O)cc([C@H]3C[C@@H]4CC[C@]3(C)C4(C)C)cc1OC2(C)C [Compound 8a, (6aR-trans)-3-(endo-1′,7′,7′-Trimethylbicyclo[2.2.1]hept-2′-yl)-6a,7,10,10atetrahydro-6,6,9-trimethyl-6H-dibenzo[b,d]pyran-1-ol] | – | no subtype selectivity
5 | CC1=CC[C@@H]2[C@@H](C1)c1c(ccc(C[C@@H]3C[C@@H]4CC[C@]3(C)C4(C)C)c1O)OC2(C)C [Compound 8d, (6aR-trans)-3-(exo-1′,7′,7′-Trimethylbicyclo[2.2.1]hept-2′-ylmethyl)-6a,7,10,10a-tetrahydro-6,6,9-trimethyl-6H-dibenzo[b,d]pyran-1-ol] | – | nonselective; also recorded: complete loss of subtype selectivities
